Source: patent US8481546B2, “CGRP receptor antagonist” (Bristol-Myers Squibb Company, priority 2010, dated 2013)

How the values were obtained:
[1] = target: T1, CGRP receptor endogenously expressed in SK-N-MC cell membranes (Homo sapiens, UniProt O60894+Q16602); experiment: Competition for [125I]CGRP binding (radioligand competition assay); conditions: 15 pM [125I]CGRP, read-out: mean Ki, inhibition of [125I]CGRP binding
T1 construct: endogenous in cells; host or cells: SK-N-MC human neuroblastoma cells (membrane homogenate or attached whole cells)
Method: SK-N-MC cell membrane homogenate serves as the receptor source. Human neuroblastoma SK-N-MC cells are used for in vitro assays because they endogenously express the CGRP receptor with an identical sequence to the cloned human CGRP receptor (Aiyar et al., 2001). Cells are grown at 37° C. in 5% CO2 in medium consisting of MEM with Earle's salts and L-glutamine supplemented with 10% fetal bovine serum to reach confluence. The cells are harvested by rinsing twice with phosphate-buffered saline and are incubated for 5-10 minutes at 4° C. in hypotonic lysis buffer consisting of 10 mM Tris (pH 7.4) and 5 mM EDTA. The cells are collected and transferred to polypropylene tubes and homogenized using a polytron. Homogenates are centrifuged at 32,000×g for 30 min. The pellets are resuspended in cold hypotonic lysis buffer with 0.1% mammalian protease inhibitor cocktail and assayed for protein concentration. The membrane homogenate is then aliquoted and stored at −80° C. until the day of assay.
The ability of Compound I to compete for the radiolabeled ([^125I]CGRP, Amersham Biosciences) endogenous peptide human alpha CGRP (hαCGRP) is measured using a radioligand competition assay. Compound I is first solubilized in and carried through serial dilutions using 100% DMSO. […] Protein bound radioactivity is measured using a gamma scintillation counter. […]

[2] = target: T2, CGRP receptor, SK-N-MC cell membrane preparation (Homo sapiens, UniProt O60894+Q16602); experiment: Saturation binding of [125I]CGRP with or without Compound I
T2 construct: endogenous in cells; host or cells: SK-N-MC human neuroblastoma cells (membrane homogenate or attached whole cells)
Method: The nature of the interaction between the endogenous CGRP peptide and Compound I is studied in detail using saturation binding experiments. Briefly, the binding of [^125I]CGRP to the SK-N-MC cell membrane preparation is measured with increasing concentration of [^125I]CGRP without (control condition) or in the presence of (test conditions) one of the two concentrations (30 pM and 100 pM) of Compound I. Saturation data are analyzed with hyperbolic equations using Kell software (Biosoft, Cambridge, UK) to estimate dissociation constant (Kd) and the maximum number of binding sites (Bmax). The impact of the addition of Compound I to the binding parameters (Kd, Bmax) of [^125I]CGRP is measured and compared.

[3] = target: T3, CGRP receptor in attached whole SK-N-MC cells (Homo sapiens, UniProt O60894+Q16602); experiment: Cellular functional assay, cyclic AMP assay; type: cell-based; conditions: 0.3 nM CGRP
T3 construct: endogenous in cells; host or cells: SK-N-MC human neuroblastoma cells (membrane homogenate or attached whole cells)
Method: The CGRP receptor complex is coupled to the Gs class of G proteins. Binding of CGRP to this complex leads to the production of cyclic AMP (adenosine 3′S′-cyclic monophosphate) via Gs-dependent activation of adenylate cyclase.
Functional antagonism by Compound I is determined by measuring its ability to inhibit CGRP-stimulated formation of cyclic AMP in attached whole SK-N-MC cells. SK-N-MC cells are incubated at room temperature with 0.3 nM CGRP alone for 30 minutes, or pre-incubated with various concentrations of Compound I for 15 minutes before the addition of 0.3 nM CGRP and then further incubated for 30 minutes. The Cyclic AMP (cAMP) produced is extracted using the “Lysis Reagent” and its concentration is determined by radioimmunoassay using RPA559 cAMP SPA Direct Screening Assay Kit (Amersham Pharmacia Biotech). IC50 values are defined as the concentration of compound required to inhibit 50% of 0.3 nM CGRP-stimulated cAMP production. Ymax is defined as maximal percent inhibition of 0.3 nM CGRP-stimulated cAMP production.

[4] = target: T4, CGRP receptor (CGRP-stimulated cAMP production) (Homo sapiens, UniProt O60894+Q16602); experiment: Schild analysis of CGRP-stimulated cAMP production; type: cell-based
T4 construct: endogenous in cells; host or cells: SK-N-MC human neuroblastoma cells (membrane homogenate or attached whole cells)
Method: Schild analysis is used to characterize the nature of the antagonism of Compound I. The dose response of CGRP-stimulated cAMP production is generated either with CGRP alone, or with CGRP in the presence of various concentrations of Compound I. Specifically, dose-dependent cAMP stimulation by CGRP is assayed with or without five different concentrations of Compound I. The concentration of Compound I is plotted on the X-axis against the dose ratio minus 1 on the Y-axis (dose ratio is defined as the EC50 of CGRP in the presence of Compound I divided by the EC50 of CGRP alone). Linear regression is then performed with both X and Y axes log-transformed. […] Kb is the antagonist dissociation constant.

[5] = test system: CGRP-induced dilation of ex vivo human intracranial arteries; experiment: Schild analysis: inhibition of CGRP concentration-response curve in ex vivo human intracranial artery
Method: To assess functional antagonism against a range of CGRP concentrations, Compound I is pre-incubated with individual artery rings in the tissue bath and then a CGRP concentration-response curve is generated to achieve complete dilation (using multiple agonist and multiple antagonist doses). Higher concentrations of antagonist produce a ‘right-shift’ in the CGRP concentration-response curve, requiring greater concentrations of agonist to overcome the presence of antagonist and achieve full dilation. In short, wire mounted artery rings are pre-incubated with antagonist, then contracted with KCl (to mimic endogenous tone), and followed by addition of increasing concentrations of CGRP to achieve full relaxation.
Each wire mounted artery ring is pre-incubated for 30 min with a single concentration (0.1-30 nM) of the antagonist Compound I, then contracted with 10 mM KCl (to mimic endogenous tone), followed by addition of increasing concentrations of CGRP to achieve full relaxation. The KCl contraction is allowed to stabilize, such that total antagonist pretreatment time is approximately 45 min prior to application of CGRP.

[6] = in the presence of 30 pM Compound I
[7] = in the presence of 100 pM Compound I

## Cc1cc(C[C@@H](NC(=O)N2CCC(c3cc4ccccc4[nH]c3=O)CC2)C(=O)N2CCN(C3CCN(C)CC3)CC2)cc2cn[nH]c12 [Compound I, (R)—N-(3-(7-methyl-1H-indazol-5-yl)-1-(4-(1-methylpiperidin-4-yl)piperazin-1-yl)-1-oxopropan-2-yl)-4-(2-oxo-1,2-dihydroquinolin-3-yl)piperidine-1-carboxamide]
[1]
  Ki: 0.0227 nM
[2]; [6]
  Bmax of [125I]CGRP: 112.1 ± 20.6 fmol/mg protein
  Kd of [125I]CGRP: 0.058 ± 0.0196 nM
[2]; [7]
  Bmax of [125I]CGRP: 146.8 ± 6.4 fmol/mg protein
  Kd of [125I]CGRP: 0.1297 ± 0.0319 nM
[3]
  Ymax, maximal percent inhibition of CGRP-stimulated cAMP production: 95.4 (±1.3) %
[3]; read-out: IC50, inhibition of CGRP-stimulated cAMP production
  IC50: 0.0386 ± 0.0042 nM
[4]
  Schild analysis mean slope: 1.02±0.04
[4]; Schild analysis, read-out: mean antagonist dissociation constant Kb
  Kb: 0.0215 ± 0.0094 nM
[5]
  Kb: 0.091 nM
